Experimental data reported in patent publication US10086085B2, “Bifunctional cytotoxic agents” (priority 2014, dated 2018).
Read-outs that look alike come from different tables or passages of the source.

Experiments:
[1] = tested on: N87 (human gastric carcinoma derived from metastatic liver site); assay: Cytotoxicity assay for payloads (MTS), N87 cells; assay type: cell-based; conditions: N87 cells, incubated with compounds for four days, MTS absorbance 490 nm, read-out: N87 IC50
Procedure: (§1) Cancer cell lines were obtained from ATCC (Manassas, Va.). N87 (human gastric carcinoma derived from metastatic liver site). HL60 (leukemia), A375 (melanoma) and HUVEC (human umbilical vein endothelial cells). were grown in RPMI 1640 media. All media were supplemented with 10% fetal bovine serum, 1% sodium pyruvate, and 1% L-glutamine (Invitrogen, Grand Island, N.Y.). Human umbilical vein endothelial cells (HUVEC) were obtained from Lonza (Allendale, N.J.) and maintained in EGM2 media supplemented with EGM-2 SingleQuots (Lonza # CC-4176). All cells were maintained in a humidified incubator (37° C., 5% CO2).
(§2) Cells in 100 μl medium were cultured in a 96-well plate. Cancer cell lines treated with the indicated compounds by adding 50 μl of 3× stocks in duplicate at 10 concentrations. Cells were incubated with compounds for four days, then 30 μl of CellTiter® 96 AQueous One MTS Solution (Promega Cat # G3582) was added to the cells, incubated 1.5 hr at 37° C., then absorbance measured at 490 nm on a Victor plate reader (Perkin Elmer, Waltham, Mass.). Relative cell viability was determined as a percentage of untreated control wells. IC50 values were calculated using four parameter logistic model #203 with XLfit v4.2 (IDBS, Guildford, Surry, UK).

[2] = tested on: HL60 (leukemia); assay: Cytotoxicity assay for payloads (MTS), HL-60 cells; assay type: cell-based; conditions: incubated with compounds for four days, MTS absorbance 490 nm
Procedure: as §1, §2

What does the source list for `O=C([C@@H]1CCC[C@H](C(=O)N2C[C@@H](CCl)c3c2cc(O)c2ccccc32)C1)N1C[C@@H](CCl)c2c1cc(O)c1ccccc21` [Compound 16, (S)-((1R,3S)-cyclohexane-1,3-diyl)bis(((S)-1-(chloromethyl)-5-hydroxy-1H-benzo[e]indol-3(2H)-yl)methanone)]?
IC50 ([1]; Homo sapiens, 96 h): 1760 pM; IC50 ([2]; Homo sapiens, 96 h): 163 pM

Which results are given for `O=C(c1cccc(C(=O)N2C[C@@H](CCl)c3c2cc(O)c2ccccc32)n1)N1C[C@@H](CCl)c2c1cc(O)c1ccccc21` [Compound 18, (S)-pyridine-2,6-diylbis(((S)-1-(chloromethyl)-5-hydroxy-1H-benzo[e]indol-3(2H)-yl)methanone)]?
IC50 ([1]; Homo sapiens, 96 h): 174000 pM; IC50 ([2]; Homo sapiens, 96 h): 2190 pM

`O=C(c1cccc(C(=O)N2C[C@@H](CCl)c3c2cc(O)c2ccccc32)c1)N1C[C@@H](CCl)c2c1cc(O)c1ccccc21` [Compound 20, (S)-1,3-phenylenebis(((S)-1-(chloromethyl)-5-hydroxy-1H-benzo[e]indol-3(2H)-yl)methanone)] was tested. Which IC50 ([1]; Homo sapiens, 96 h) did it give?
Its IC50 is 297000 pM.

And the IC50 ([2]; Homo sapiens, 96 h)?
Its IC50 is 1620 pM.

`O=C(CCSCCC(=O)N1C[C@@H](CCl)c2c1cc(O)c1ccccc21)N1C[C@@H](CCl)c2c1cc(O)c1ccccc21` [Compound 23, (S)-3,3′-thiobis(1-((S)-1-(chloromethyl)-5-hydroxy-1H-benzo[e]indol-3(2H)-yl)propan-1-one)] was tested. Which IC50 ([1]; Homo sapiens, 96 h) did it give?
Its IC50 is 252 pM.

And the IC50 ([2]; Homo sapiens, 96 h)?
The IC50 was 72 pM.

Which results are given for `O=C(c1ccc(C(=O)N2C[C@@H](CCl)c3c2cc(O)c2ccccc32)s1)N1C[C@@H](CCl)c2c1cc(O)c1ccccc21` [Compound 29, (S)-thiophene-2,5-diylbis(((S)-1-(chloromethyl)-5-hydroxy-1H-benzo[e]indol-3(2H)-yl)methanone)]?
IC50 ([1]; Homo sapiens, 96 h): 9 pM; IC50 ([2]; Homo sapiens, 96 h): < 1 pM

For `O=C(c1ccc(C(=O)N2C[C@@H](CCl)c3c2cc(O)c2ccccc32)[nH]1)N1C[C@@H](CCl)c2c1cc(O)c1ccccc21` [Compound 32, (S)-(1H-pyrrole-2,5-diyl)bis(((S)-1-(chloromethyl)-5-hydroxy-1H-benzo[e]indol-3(2H)-yl)methanone)], which IC50 ([1]; Homo sapiens, 96 h) is on record?
Its IC50 is 52 pM.

What about the IC50 ([2]; Homo sapiens, 96 h) of the same compound?
Its IC50 is 5 pM.

`NC(CC(=O)N1C[C@@H](CCl)c2c1cc(O)c1ccccc21)CC(=O)N1C[C@@H](CCl)c2c1cc(O)c1ccccc21` [Compound 40, 3-Amino-1,5-bis-((S)-1-chloromethyl-5-hydroxy-1,2-dihydro-enzo[e]indol-3-yl)-pentane-1,5-dione] was tested. Which IC50 ([1]; Homo sapiens, 96 h) did it give?
The IC50 was 1880 pM.

What about the IC50 ([2]; Homo sapiens, 96 h) of the same compound?
Its IC50 is 177 pM.

`Nc1cccc(C(CC(=O)N2C[C@@H](CCl)c3c2cc(O)c2ccccc32)CC(=O)N2C[C@@H](CCl)c3c2cc(O)c2ccccc32)c1` [Compound 44, 3-(3-Amino-phenyl)-1,5-bis-((S)-1-chloromethyl-5-hydroxy-1,2-dihydro-benzo[e]indol-3-yl)-pentane-1,5-dione] was tested. Which IC50 ([1]; Homo sapiens, 96 h) did it give?
Its IC50 is ≥ 10000 pM.

What about the IC50 ([2]; Homo sapiens, 96 h) of the same compound?
Its IC50 is 5290 pM.

For `Nc1ccc(C(CC(=O)N2C[C@@H](CCl)c3c2cc(O)c2ccccc32)CC(=O)N2C[C@@H](CCl)c3c2cc(O)c2ccccc32)cc1` [Compound 48, 3-(4-Amino-phenyl)-1,5-bis-((S)-1-chloromethyl-5-hydroxy-1,2-dihydro-benzo[e]indol-3-yl)-pentane-1,5-dione], which IC50 ([1]; Homo sapiens, 96 h) is on record?
The IC50 was 12200 pM.

And the IC50 ([2]; Homo sapiens, 96 h)?
The IC50 was 1750 pM.

`Nc1ccc(CCC(=O)N(CC(=O)N2C[C@@H](CCl)c3c2cc(O)c2ccccc32)CC(=O)N2C[C@@H](CCl)c3c2cc(O)c2ccccc32)cc1` [Compound 56, 3-(4-Amino-phenyl)-N,N-bis-[2-((S)-1-chloromethyl-5-hydroxy-1,2-dihydro-benzo[e]indol-3-yl)-2-oxo-ethyl]-propionamide] was tested. Which IC50 ([1]; Homo sapiens, 96 h) did it give?
Its IC50 is ≥ 100000 pM.

What about the IC50 ([2]; Homo sapiens, 96 h) of the same compound?
Its IC50 is 6930 pM.

`O=C(CCNC(=O)N1C[C@@H](CCl)c2c1cc(O)c1ccccc21)N1C[C@@H](CCl)c2c1cc(O)c1ccccc21` [Compound 65, (S)-1-Chloromethyl-5-hydroxy-1,2-dihydro-benzo[e]indole-3-carboxylic acid [3-((S)-1-chloromethyl-5-hydroxy-1,2-dihydro-benzo[e]indol-3-yl)-3-oxo-propyl]-amide] was tested. Which IC50 ([1]; Homo sapiens, 96 h) did it give?
The IC50 was 554 pM.

And the IC50 ([2]; Homo sapiens, 96 h)?
Its IC50 is 4 pM.

`CC(=O)Oc1cc2c(c3ccccc13)[C@H](CCl)CN2C(=O)c1cc(C(=O)N2C[C@@H](CCl)c3c2cc(OC(C)=O)c2ccccc32)n(C)n1` [Compound 74, acetic acid (S)-3-[5-((S)-5-acetoxy-1-chloromethyl-1,2-dihydro-benzo[e]indole-3-carbonyl)-1-methyl-1H-pyrazole-3-carbonyl]-1-chloromethyl-2,3-dihydro-1H-benzo[e]indol-5-yl ester] was tested. Which IC50 ([1]; Homo sapiens, 96 h) did it give?
The IC50 was 76500 pM.

What about the IC50 ([2]; Homo sapiens, 96 h) of the same compound?
Its IC50 is 7490 pM.

For `CC(=O)Oc1cc2c(c3ccccc13)[C@H](CCl)CN2C(=O)C12CCC(C(=O)N3C[C@@H](CCl)c4c3cc(OC(C)=O)c3ccccc43)(CC1)N2` [Compound 79, 7-azabicyclo[2.2.1]heptane-1,4-diylbis[carbonyl(1S)-1-(chloromethyl)-1,2-dihydro-3H-benzo[e]indole-3,5-diyl]diacetate], which IC50 [1] is on record?
Its IC50 is 7960 pM.

And the IC50 [2]?
Its IC50 is 496 pM.

How did the IC50 ([1]; Homo sapiens, 96 h) turn out when `CC(=O)Oc1cc2c(c3ccccc13)[C@H](CCl)CN2C(=O)C12CCC(C(=O)N3C[C@@H](CCl)c4c3cc(OC(C)=O)c3ccccc43)(C1)C2` [Compound 82, (1S,4S)-bicyclo[2.1.1]hexane-1,4-diylbis[carbonyl(1S)-1-(chloromethyl)-1,2-dihydro-3H-benzo[e]indole-3,5-diyl]diacetate] was run?
The IC50 was 3240 pM.

And the IC50 ([2]; Homo sapiens, 96 h)?
Its IC50 is 359 pM.

Which results are given for `CC(=O)Oc1cc2c(c3c(C)c[nH]c13)[C@H](CCl)CN2C(=O)C12CCC(C(=O)N3C[C@@H](CCl)c4c3cc(OC(C)=O)c3[nH]cc(C)c43)(CC1)CC2` [Compound 85, bicyclo[2.2.2]octane-1,4-diylbis[carbonyl(1S)-1-(chloromethyl)-8-methyl-1,6-dihydropyrrolo[3,2-e]indole-3,5(2H)-diyl]diacetate]?
IC50 ([1]; Homo sapiens, 96 h): 53 pM; IC50 ([2]; Homo sapiens, 96 h): 5 pM

Which IC50 ([1]; Homo sapiens, 96 h) does the source give for `CC(=O)Oc1cc2c(c3c(C)c[nH]c13)[C@H](CCl)CN2C(=O)C12CCC(C(=O)N3C[C@@H](CCl)c4c3cc(OC(C)=O)c3[nH]cc(C)c43)(CC1)C2` [Compound 88, bicyclo[2.2.1]heptane-1,4-diylbis[carbonyl(1S)-1-(chloromethyl)-8-methyl-1,6-dihydropyrrolo[3,2-e]indole-3,5(2H)-diyl]diacetate] here?
Its IC50 is 502 pM.

And the IC50 ([2]; Homo sapiens, 96 h)?
Its IC50 is 22 pM.

For `CC(=O)Oc1cc2c(c3c(C)c[nH]c13)[C@H](CCl)CN2C(=O)C12CC(C(=O)N3C[C@@H](CCl)c4c3cc(OC(C)=O)c3[nH]cc(C)c43)(C1)C2` [Compound 91, bicyclo[1.1.1]pentane-1,3-diylbis[carbonyl(1S)-1-(chloromethyl)-8-methyl-1,6-dihydropyrrolo[3,2-e]indole-3,5(2H)-diyl]diacetate], which IC50 ([1]; Homo sapiens, 96 h) is on record?
Its IC50 is 57 pM.

What about the IC50 ([2]; Homo sapiens, 96 h) of the same compound?
The IC50 was 4 pM.

For `CC(=O)Oc1cc2c(c3c(C)c[nH]c13)[C@H](CCl)CN2C(=O)CC12CC(C(=O)N3C[C@@H](CCl)c4c3cc(OC(C)=O)c3[nH]cc(C)c43)(C1)C2` [Compound 97, (8S)-6-[(3-{[(1S)-5-(acetyloxy)-1-(chloromethyl)-8-methyl-1,6-dihydropyrrolo[3,2-e]indol-3(2H)-yl]carbonyl}bicyclo[1.1.1]pent-1-yl)acetyl]-8-(chloromethyl)-1-methyl-3,6,7,8-tetrahydropyrrolo[3,2-e]indol-4-yl acetate], which IC50 ([1]; Homo sapiens, 96 h) is on record?
The IC50 was 222 pM.

And the IC50 ([2]; Homo sapiens, 96 h)?
The IC50 was 9 pM.
